Measured values: patent US20170129911A1, “COMPLEXES COMPRISING A PLATINUM COMPOUND AND AN IMMUNE CHECKPOINT INHIBITOR AND RELATED METHODS” (Massachusetts Institute of Technology, priority 2015, published 2017)

Tests used:
SKOV3 cells [1] = experiment: Immunoblotting of DNA damage response markers; format: cell-based, human; conditions: up to 48 h and 72 h
Description: The ability of 2 to induce DNA damage was investigated by monitoring changes in expression of markers of the damage response pathway by immunoblotting analyses.
Cells were washed with PBS, scraped into SDS-PAGE loading buffer (64 mM Tris-HCl (pH 6.8)/9.6% glycerol/2% SDS/5% β-mercaptoethanol/0.01% Bromophenol Blue), and incubated at 95° C. for 10 min. Whole cell lysates were resolved by 4-20% sodium dodecylsulphate polyacylamide gel electrophoresis (SDS-PAGE; 200 V for 25 min) followed by electro transfer to polyvinylidene difluoride membrane, PVDF (350 mA for 1 h). Membranes were blocked in 5% (w/v) bovine serum albumin in PBST (PBS/0.1% Tween 20) and incubated with the appropriate primary antibodies (Cell Signalling Technology and Santa Cruz). After incubation with horseradish peroxidase-conjugated secondary antibodies (Cell Signalling Technology), 1:1000, immuno complexes were detected with the ECL detection reagent (BioRad) and analyzed using UVP biospectrum imaging system fitted with a chemiluminescence filter.

T-cells = experiment: Mixed leukocyte reaction (T-cell proliferation), PBMC/SKOV3 coculture; format: cell-based, human; conditions: SKOV3/MLR coculture, 2 10 μM, 6 days, CFSE flow cytometry
Description: To target a key component of the immunosuppression promoting IDO-AHR-IL6 loop, the immunomodulatory phenotype of 2 was investigated. A mixed leukocyte reaction (MLR) was carried out. In this experiment, suspended 2×10^5 peripheral blood mononuclear cells (PBMCs) stimulated with phytohemagglutinin (PHA-P), and 2×10^5 cells of PBMCs from unrelated healthy donors as responders stained with carboxyfluorescein succinimidyl ester (CFSE), a cell permeable fluorescent dye that binds amine residues (mostly lysines) covalently, through its succinimidyl ester group were cocultured with adherent SKOV-3 (2000 cells). After 6 days of culture, PBMCs were harvested by centrifugation of medium, stained with APC-anti CD3 and T-cell proliferation was assessed by flow cytometry. T-cells express CD3, a cell surface multimeric protein complex involved in T-cell development and activation.
SKOV3 cells (2×10^3) were seeded in 6-well plates. […] The T-cell population of PBMCs was measured by FACS Calibur-HTS flow cytometer (BD Biosciences) after staining with APC-anti CD3 antibody. PHA-P stimulated PBMCs (2×10^5) and carboxyfluorescein succinimidyl ester (CFSE) stained PBMCs (2×10^5) from unrelated donors were added in co-cultures of SKOV3 tumor cells (treated and untreated) and incubated for six days at 37° C., the and CFSE signal analyzed by flow cytometry on days 1 and 6.

[2] = In vivo blood stability in mice
Description: The hydrophobic complex 2 was extracted with octanol, diluted, and the Pt concentration was determined by GFAAS.
The octanol extracts were diluted with methanol and analysed by GFAAS.

HSA = HSA (Homo sapiens, UniProt P02768); experiment: HSA binding (FPLC, GFAAS, ESI-MS); conditions: ESI mass-spectrometric analysis
Eμ-Myc lymphoma cells = experiment: RNAi signature (GFP competition) assay; conditions: LD80-90 dose, 72 h
SKOV3 cells [3] = experiment: Cell cycle analysis by flow cytometry (DNA content)
IDO = IDO (Homo sapiens, UniProt P14902); experiment: Cellular determination of kynurenine by HPLC in medium of SKOV3 cells; conditions: 2 10 μM vs (D)-1-MT 1 mM
IDO, sequence (P14902 whole entry): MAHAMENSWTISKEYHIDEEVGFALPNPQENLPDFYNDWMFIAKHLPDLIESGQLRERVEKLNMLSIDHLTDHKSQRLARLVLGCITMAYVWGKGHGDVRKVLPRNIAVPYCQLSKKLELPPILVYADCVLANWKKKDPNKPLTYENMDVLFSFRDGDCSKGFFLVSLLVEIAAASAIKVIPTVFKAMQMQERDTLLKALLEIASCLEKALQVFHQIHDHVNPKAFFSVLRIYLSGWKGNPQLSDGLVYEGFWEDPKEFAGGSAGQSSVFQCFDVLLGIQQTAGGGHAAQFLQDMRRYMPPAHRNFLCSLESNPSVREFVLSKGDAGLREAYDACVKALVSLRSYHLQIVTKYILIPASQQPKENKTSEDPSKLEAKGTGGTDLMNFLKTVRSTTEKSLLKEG

HSA, sequence (P02768 25-609): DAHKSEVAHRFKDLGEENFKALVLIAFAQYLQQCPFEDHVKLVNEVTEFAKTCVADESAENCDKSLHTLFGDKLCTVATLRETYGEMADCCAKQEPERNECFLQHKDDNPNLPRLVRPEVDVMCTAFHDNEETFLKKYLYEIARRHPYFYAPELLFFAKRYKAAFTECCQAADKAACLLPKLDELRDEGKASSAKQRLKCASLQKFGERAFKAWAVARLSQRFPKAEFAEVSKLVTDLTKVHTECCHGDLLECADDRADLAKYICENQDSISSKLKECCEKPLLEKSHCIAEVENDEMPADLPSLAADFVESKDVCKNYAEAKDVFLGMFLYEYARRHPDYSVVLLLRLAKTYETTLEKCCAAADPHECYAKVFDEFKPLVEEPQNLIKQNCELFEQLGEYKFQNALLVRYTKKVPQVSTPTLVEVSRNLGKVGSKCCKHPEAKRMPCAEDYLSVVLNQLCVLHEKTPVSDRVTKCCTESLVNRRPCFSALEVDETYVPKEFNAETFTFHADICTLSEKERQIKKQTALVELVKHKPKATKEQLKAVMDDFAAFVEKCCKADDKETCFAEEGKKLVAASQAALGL

## CCCCCCCCCCCCCCCCNC(=O)[O][Pt]([NH2])([NH2])([Cl])([Cl])[O]C(=O)CCC(=O)NCCOC(=O)[C@H](N)Cc1cn(C)c2ccccc12 (mixture of isomers) [Compound 2, cis,cis,trans-[Pt(NH3)2Cl2(O2CC2H4OCNHC2H4O2C-D-1MT)(O2CNHC16H33)]]
SKOV3 cells [1]
  expression of DNA damage response markers: marked time-dependent increase in expression of phosphorylated ATR, ATM, BRCA1, Chk1, Chk2, H2AX, and p53
T-cells
  alloreactive T-cell proliferation: enhancement of alloreactive T-cell proliferation
[2]; 24 h after i.v. NP formulation of 2, 8 mg/kg
  Pt concentration in blood (octanol extract): non-detectable levels
[2]; female, Balb/c, mouse, whole blood, iv, 8 mg/kg
  half-life: ~1 h
HSA
  binding to HSA: binds HSA
Eμ-Myc lymphoma cells
  RNAi signature: strong p53 and Chk2 shRNA enrichment
SKOV3 cells [3]
  cell cycle arrest phase: cell cycle block at G1 phase
IDO
  block of kynurenine release in the medium in comparison to (D)-1-MT: by a factor of three
